# Measurements reported in patent US7947726B2, “Non-steroidal ligands for the glucocorticoid receptor, and compositions thereof” (The Regents of the University of California, priority 2002, dated 2011).
# Read-outs that look alike come from different tables or passages of the source.
# Key:
# GR [1] = target: T1, GR (Homo sapiens, UniProt P04150); test: GRE (TAT3-Luc) activation luciferase assay in CV-1 cells transfected with GR; type: cell-based
# T1 construct: expressed in transfected cells; host or cells: CV-1 cells, transient transfection (plasmid a gift of Keith Yamamoto, UCSF)
# T1 sequence (P04150 1-777): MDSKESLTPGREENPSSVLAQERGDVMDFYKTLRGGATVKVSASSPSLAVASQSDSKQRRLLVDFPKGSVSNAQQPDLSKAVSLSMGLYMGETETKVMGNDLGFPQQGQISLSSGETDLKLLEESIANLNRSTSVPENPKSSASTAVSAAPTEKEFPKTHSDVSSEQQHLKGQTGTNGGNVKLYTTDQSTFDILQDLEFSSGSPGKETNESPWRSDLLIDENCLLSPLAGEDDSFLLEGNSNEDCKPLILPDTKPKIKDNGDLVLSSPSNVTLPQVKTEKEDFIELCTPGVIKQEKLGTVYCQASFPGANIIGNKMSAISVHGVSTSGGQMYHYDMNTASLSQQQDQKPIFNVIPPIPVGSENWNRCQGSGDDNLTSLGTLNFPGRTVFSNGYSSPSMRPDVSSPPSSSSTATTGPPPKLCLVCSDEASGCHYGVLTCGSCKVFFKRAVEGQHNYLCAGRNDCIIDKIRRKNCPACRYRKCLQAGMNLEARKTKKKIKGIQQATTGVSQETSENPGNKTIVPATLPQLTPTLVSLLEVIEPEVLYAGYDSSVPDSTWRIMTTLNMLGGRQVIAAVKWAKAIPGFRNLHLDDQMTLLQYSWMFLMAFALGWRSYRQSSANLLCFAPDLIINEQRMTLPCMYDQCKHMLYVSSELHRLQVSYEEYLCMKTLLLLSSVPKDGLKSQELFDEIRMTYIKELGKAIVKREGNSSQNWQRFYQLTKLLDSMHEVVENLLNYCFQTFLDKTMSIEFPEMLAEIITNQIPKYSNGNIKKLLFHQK
# Method: Cells were plated into tissue culture treated, 96 well flat bottom plates (25,000 cells/well), and incubated for 12 h at 37° C. Cells were then transfected using the Lipofectamine PLUS transfection reagent (Gibco BRL). DNA-lipid complexes of 5 ng GR, 50 ng TAT3-Luc, 7.5 ng β-galactosidase, 1 μL-well PLUS reagent and 0.67 μL-well lipofectamine in 50 μL/well serum free media were added to cells and incubated for 4 h at 37° C. Complexes were removed and hormones diluted in 5% charcoal-stripped FBS were added to the cells, which were then incubated for 24 hours at 37° C. Media was removed and the cells were washed with 100 μL Ca^+2, Mg^+2 free phosphate buffered saline (PBS). Lysis was achieved by adding 50 μL of Passive Lysis Buffer (Promega Corp, Madison, Wis.) and shaking the plate for 15 min. 15 μL of this lysate was then used to assay β-galactosidase activity (β-galactosidase enzyme assay system, Promega Corp., recommended procedures followed). The Luciferase Assay System (Promega Corp.) was used to assay luciferase activity. 100 μL of luciferase assay reagent was added rapidly to the plate and luminescence was measured for 10 ms/well on an Analyst AD Detection System (LJL Biosystems, Sunnyvale, Calif.).
# MR = target: T2, MR (Homo sapiens, UniProt P08235); test: MR activation (max fold activation); type: cell-based; conditions: Table 4
# T2 sequence (P08235 1-984): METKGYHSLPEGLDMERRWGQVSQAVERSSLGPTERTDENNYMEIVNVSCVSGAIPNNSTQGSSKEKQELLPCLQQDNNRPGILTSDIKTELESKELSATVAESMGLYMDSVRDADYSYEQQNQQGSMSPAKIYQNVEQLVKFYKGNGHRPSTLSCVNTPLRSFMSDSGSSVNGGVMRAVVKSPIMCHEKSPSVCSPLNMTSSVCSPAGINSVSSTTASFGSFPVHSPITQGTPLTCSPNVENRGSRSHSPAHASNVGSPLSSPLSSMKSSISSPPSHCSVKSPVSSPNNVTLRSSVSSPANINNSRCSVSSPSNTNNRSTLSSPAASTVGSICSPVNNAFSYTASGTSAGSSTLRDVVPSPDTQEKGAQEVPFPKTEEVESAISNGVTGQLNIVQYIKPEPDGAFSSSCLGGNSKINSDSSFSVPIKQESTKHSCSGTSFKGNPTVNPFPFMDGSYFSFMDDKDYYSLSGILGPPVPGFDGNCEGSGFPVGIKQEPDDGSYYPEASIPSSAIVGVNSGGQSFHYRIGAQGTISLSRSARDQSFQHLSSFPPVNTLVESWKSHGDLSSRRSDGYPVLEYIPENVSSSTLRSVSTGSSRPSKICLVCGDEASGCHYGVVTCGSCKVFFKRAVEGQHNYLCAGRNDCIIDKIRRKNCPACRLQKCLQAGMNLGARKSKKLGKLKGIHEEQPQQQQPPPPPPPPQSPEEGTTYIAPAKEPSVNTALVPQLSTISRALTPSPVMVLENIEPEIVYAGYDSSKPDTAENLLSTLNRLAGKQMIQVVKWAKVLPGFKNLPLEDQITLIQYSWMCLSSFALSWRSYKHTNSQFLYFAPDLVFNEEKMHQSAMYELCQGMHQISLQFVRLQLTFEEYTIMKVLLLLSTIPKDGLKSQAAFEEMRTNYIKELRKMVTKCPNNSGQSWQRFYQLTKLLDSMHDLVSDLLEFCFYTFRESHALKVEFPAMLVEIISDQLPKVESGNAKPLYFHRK
# [2] = target: T3, glucocorticoid receptor (GR) (Homo sapiens, UniProt P04150); test: Glucocorticoid Receptor Competitor Assay Kit (Panvera) ligand binding; conditions: for GR binding RBA (dex = 100): Table 3; for GR binding RBA (dex = 100) / GR Binding RBA (dexamethasone = 100): relative binding affinity, dexamethasone = 100; for GR Binding RBA (dexamethasone = 100): Table 1
# T3 construct: purchased Panvera Corp, Madison, Wis
# T3 sequence (P04150 1-777): T1 sequence (P04150 1-777)
# Source text: The Glucocorticoid Receptor Competitor Assay Kit (Panvera Corp, Madison, Wis.) was used for ligand binding studies. The recommended room temperature protocol was followed for all assayed ligands.
# GR [3] = target: T4, GR (Rattus norvegicus, UniProt P06536); test: AP-1 repression luciferase assay in U2OS cells stably transfected with rat GR; type: cell-based; conditions: Table 5, TPA-stimulated U2OS cells; for EC50: read-out: Repression AP-1 pot (EC50); for Emax: U2OS, 12 h, read-out: Repression AP-1 % max repression
# T4 construct: expressed in transfected cells; gift of Keith Yamamoto
# T4 sequence (P06536 1-795): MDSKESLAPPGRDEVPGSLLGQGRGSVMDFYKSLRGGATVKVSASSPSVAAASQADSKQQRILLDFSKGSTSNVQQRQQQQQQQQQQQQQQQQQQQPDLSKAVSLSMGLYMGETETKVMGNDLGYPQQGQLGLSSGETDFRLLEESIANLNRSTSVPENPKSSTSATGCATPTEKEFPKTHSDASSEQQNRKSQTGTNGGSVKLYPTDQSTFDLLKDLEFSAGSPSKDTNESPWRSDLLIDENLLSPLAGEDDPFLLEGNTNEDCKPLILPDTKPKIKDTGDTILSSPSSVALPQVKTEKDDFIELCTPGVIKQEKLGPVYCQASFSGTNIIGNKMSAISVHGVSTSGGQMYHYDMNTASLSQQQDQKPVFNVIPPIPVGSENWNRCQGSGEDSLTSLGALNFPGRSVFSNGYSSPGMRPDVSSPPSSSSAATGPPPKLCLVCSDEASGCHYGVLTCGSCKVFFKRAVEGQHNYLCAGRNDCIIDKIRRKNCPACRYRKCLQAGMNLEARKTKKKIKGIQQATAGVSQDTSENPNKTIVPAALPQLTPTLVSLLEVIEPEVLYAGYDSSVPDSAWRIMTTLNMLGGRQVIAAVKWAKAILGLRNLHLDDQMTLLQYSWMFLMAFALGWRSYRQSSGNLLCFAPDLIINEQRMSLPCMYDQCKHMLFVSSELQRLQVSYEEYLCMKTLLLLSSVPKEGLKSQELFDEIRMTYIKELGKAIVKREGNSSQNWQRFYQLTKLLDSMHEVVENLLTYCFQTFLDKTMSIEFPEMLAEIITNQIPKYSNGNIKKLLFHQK
# Method: For API repression assays, U2OS cells stably transfected with rat GR were grown in similar media as for CV-1 cells with the exception of the FBS concentration, which was 10% and the only antibiotic was […]. Cells were plated and transfected in a similar fashion, except for plasmids, which in this case were 50 ng/well AP1-Luc and 10 ng/well β-galactosidase. Post-transfection, cells were incubated with either 50 ng/mL TPA (Phorbol 12-myristate 13-acetate), or 50 ng/mL TPA and various hormone dilutions in 10% charcoal treated FBS media. The cells were incubated for 12 h, and the lysis, β-galactosidase assay, and luciferase assay were performed as previously described.
# Coll A = Coll A repression; type: cell-based; conditions: for Emax: read-out: Repression Coll A % max repression; for EC50: read-out: Repression Coll A pot (EC50)
# [4] = Table 4, read-out: GR pot (EC50)
# [5] = read-out: IC50 in a GR binding assay
# [6] = Table 2, read-out: GR Binding (IC50)
compound,measurement,setting,value
"C[C@]12CCC(=O)C=C1CC[C@@H]1[C@@H]2[C@@H](O)C[C@]2(C=O)[C@@H](C(=O)CO)CC[C@@H]12 [Aldosterone, reference compound]",GRE activation max fold activation,"GR [1]; Table 4, fold",41
same,EC50,GR [1]; [4],765 nM
same,MR max fold activation,MR,6.1 ± 1.5
"CC12Cc3cnn(-c4ccc(F)cc4)c3C=C1CCCC2=O (centres unmarked) [Compound 205, 1-(4-Fluoro-phenyl)-4a-methyl-1,4,4a,6,7,8-hexahydro-benzo[f]indazol-5-one]",IC50,[2]; [5],436 nM
"COc1cc(C(O)C2CCCC3=Cc4c(cnn4-c4ccc(F)cc4)CC32C)cc(OC)c1OC (centres unmarked) [Compound 223, [1-(4-Fluoro-phenyl)-4a-methyl-4,4a,5,6,7,8-hexahydro-1H-benzo[f]indazol-5-yl]-(3,4,5-trimethoxyphenyl)-methanol]",GRE activation max fold activation,"GR [1]; Table 4, fold",32 ± 2
same,EC50,GR [1]; [4],143 ± 27 nM
same,EC50,GR [3],6.7 nM
same,Emax,GR [3],74%
same,GR binding RBA (dex = 100),[2],47
"Cc1cc(O)cc(C)c1C(=O)C1CCCC2=Cc3c(cnn3-c3ccc(F)cc3)CC21C (centres unmarked) [Compound 228, 4-{[1-(4-Fluoro-phenyl)-4a-methyl-4,4a,5,6,7,8-hexahydro-1H-benzo[f]indazol-5-yl]-keto-methyl}-3,5-dimethyl-phenol]",GR Binding RBA (dexamethasone = 100),[2],16
"Cc1cc(O)cc(C)c1CC1CCCC2=Cc3c(cnn3-c3ccc(F)cc3)CC21C (centres unmarked) [Compound 230, 4-{[1-(4-Fluoro-phenyl)-4a-methyl-4,4a,5,6,7,8-hexahydro-1H-benzo[f]indazol-5-yl]-methyl}-3,5-dimethyl-phenol]",GR Binding RBA (dexamethasone = 100),[2],22
"COCOC(c1c(C)cc(O)cc1C)C1CCCC2=Cc3c(cnn3-c3ccc(F)cc3)CC21C (centres unmarked) [Compound 232, 4-{[1-(4-Fluoro-phenyl)-4a-methyl-4,4a,5,6,7,8-hexahydro-1H-benzo[f]indazol-5-yl]-methoxymethoxy-methyl}-3,5-dimethyl-phenol]",EC50,"GR [1]; Table 1, read-out: GR pot(EC50)",82 nM
same,GR Binding RBA (dexamethasone = 100),[2],26
"Cc1cc(C(O)C2CCCC3=Cc4c(cnn4-c4ccc(F)cc4)CC32C)ccc1O (centres unmarked) [Compound 235, 4-{[1-(4-Fluoro-phenyl)-4a-methyl-4,4a,5,6,7,8-hexahydro-1H-benzo[f]indazol-5-yl]-hydroxy-methyl}-2-methyl-phenol]",GRE activation max fold activation,"GR [1]; Table 4, fold",76
same,EC50,GR [1]; [4],81 nM
same,EC50,GR [3],16.6 nM
same,Emax,GR [3],74%
same,GR binding RBA (dex = 100),[2],110
"CC12Cc3cnn(-c4ccc(F)cc4)c3C=C1CCCC2C(O)c1cc2ccccc2c2ccccc12 (centres unmarked) [Compound 259, [1-(4-Fluoro-phenyl)-4a-methyl-4,4a,5,6,7,8-hexahydro-1H-benzo[f]indazol-5-yl]-phenanthren-9-yl-methanol]",EC50,GR [1]; [4],> 5000 nM
same,GR binding RBA (dex = 100),[2],72
same,Emax,Coll A; Table 5,73%
same,EC50,Coll A; Table 5,783 nM
"CC12Cc3cnn(-c4cccc(C#Cc5ccccc5)c4)c3C=C1CCCC2=O (centres unmarked) [Compound 261, 4a-Methyl-1-(3-phenylethynyl-phenyl)-1,4,4a,6,7,8-hexahydro-benzo[f]indazol-5-one]",IC50,[2]; [5],174 nM
"CC12Cc3cnn(-c4ccc(F)cc4)c3C=C1CCc1c2[nH]c2ccc(Br)cc12 (centres unmarked) [Compound 263, 3-(4-fluoro-phenyl)-8-bromo-11b-methyl-5,6,12-trihydro-indazolo[5,6-a]carbazole]",IC50,[2]; [6],708 nM
"COc1ccc2[nH]c3c(c2c1)CCC1=Cc2c(cnn2-c2ccc(F)cc2)CC13C (centres unmarked) [Compound 265, 3-(4-fluoro-phenyl)-8-methoxy-11b-methyl-5,6,12-trihydro-indazolo[5,6-a]carbazole]",IC50,[2]; [6],239 nM
"CC12Cc3cnn(-c4ccc(F)cc4)c3C=C1CCc1c2[nH]c2ccc(F)cc12 (centres unmarked) [Compound 267, 3-(4-fluoro-phenyl)-8-fluoro-11b-methyl-5,6,12-trihydro-indazolo[5,6-a]carbazole]",GRE Activation Max fold activation,"GR [1]; Table 2, fold",18
same,IC50,[2]; [6],130 nM
same,Emax,Coll A; Table 2,75%
same,EC50,Coll A; Table 2,100 nM
"CC12Cc3cnn(-c4ccc(F)cc4)c3C=C1CCC(=Cc1c3ccccc3cc3ccccc13)C2=O (centres unmarked) [Compound 269, 6-Anthracen-9-ylmethylene-1-(4-fluoro-phenyl)-4a-methyl-1,4,4a,6,7,8-hexahydro-benzo[f]indazol-5-one]",EC50,"GR [1]; Table 2, read-out: GRE Activation GR pot (EC50)",> 5000 nM
same,IC50,[2]; [6],43 nM
same,EC50,Coll A; Table 2,> 5000 nM
